Calls of active or inactive are those of the source. The rule behind the calls is not given here.
Test system: CCRIS mutagenicity, Ames/micronucleus/aberration tests
Assay: CCRIS mutagenicity studies
[1] = Test System: AMES SALMONELLA TYPHIMURIUM, Strain/Indicator: TA98, Metabolic Activation: NONE, Method: STANDARD PLATE
[2] = Test System: AMES SALMONELLA TYPHIMURIUM, Strain/Indicator: TA98, Metabolic Activation: RAT, LIVER, S-9, AROCLOR 1254, Method: STANDARD PLATE
[3] = Test System: AMES SALMONELLA TYPHIMURIUM, Strain/Indicator: TA100, Metabolic Activation: NONE, Method: STANDARD PLATE
[4] = Test System: AMES SALMONELLA TYPHIMURIUM, Strain/Indicator: TA100, Metabolic Activation: RAT, LIVER, S-9, AROCLOR 1254, Method: STANDARD PLATE
[5] = Test System: AMES SALMONELLA TYPHIMURIUM, Strain/Indicator: TA1535, Metabolic Activation: NONE, Method: STANDARD PLATE
[6] = Test System: AMES SALMONELLA TYPHIMURIUM, Strain/Indicator: TA1535, Metabolic Activation: RAT, LIVER, S-9, AROCLOR 1254, Method: STANDARD PLATE
[7] = Test System: AMES SALMONELLA TYPHIMURIUM, Strain/Indicator: TA1537, Metabolic Activation: NONE, Method: STANDARD PLATE
[8] = Test System: AMES SALMONELLA TYPHIMURIUM, Strain/Indicator: TA1537, Metabolic Activation: RAT, LIVER, S-9, AROCLOR 1254, Method: STANDARD PLATE
[9] = Test System: AMES SALMONELLA TYPHIMURIUM, Strain/Indicator: TA1538, Metabolic Activation: NONE, Method: STANDARD PLATE
[10] = Test System: AMES SALMONELLA TYPHIMURIUM, Strain/Indicator: TA1538, Metabolic Activation: RAT, LIVER, S-9, AROCLOR 1254, Method: STANDARD PLATE

With `O=c1[nH]c2ccccc2o1` the mutagenic call (Test System: AMES SALMONELLA TYPHIMURIUM, Strain/Indicator: TA98, Metabolic Activation: HAMSTER, LIVER, S-9, AROCLOR 1254, Method: STANDARD PLATE) was “inactive; negative”, the mutagenic call [1] was “inactive; negative” and the mutagenic call [2] was “inactive; negative”. For the same molecule, the mutagenic call (Test System: AMES SALMONELLA TYPHIMURIUM, Strain/Indicator: TA100, Metabolic Activation: HAMSTER, LIVER, S-9, AROCLOR 1254, Method: STANDARD PLATE) was “inactive; negative”, the mutagenic call [3] was “inactive; negative” and the mutagenic call [4] was “inactive; negative”. The mutagenic call (Test System: AMES SALMONELLA TYPHIMURIUM, Strain/Indicator: TA1535, Metabolic Activation: HAMSTER, LIVER, S-9, AROCLOR 1254, Method: STANDARD PLATE) was “inactive; negative”, the mutagenic call [5] was “inactive; negative” and the mutagenic call [6] was “inactive; negative”. For the same molecule, the mutagenic call (Test System: AMES SALMONELLA TYPHIMURIUM, Strain/Indicator: TA1537, Metabolic Activation: HAMSTER, LIVER, S-9, AROCLOR 1254, Method: STANDARD PLATE) was “inactive; negative”, the mutagenic call [7] was “inactive; negative” and the mutagenic call [8] was “inactive; negative”. The mutagenic call (Test System: AMES SALMONELLA TYPHIMURIUM, Strain/Indicator: TA1538, Metabolic Activation: HAMSTER, LIVER, S-9, AROCLOR 1254, Method: STANDARD PLATE) was “inactive; negative”, the mutagenic call [9] was “inactive; negative” and the mutagenic call [10] was “inactive; negative”. The mutagenic call (Test System: MOUSE LYMPHOMA, Strain/Indicator: L5178Y (TK+/TK-), Metabolic Activation: NONE, Method: SUSPENSION/PLATE) was “active; positive. reevaluation of results: equivocal” and the mutagenic call (Test System: MOUSE LYMPHOMA, Strain/Indicator: L5178Y (TK+/TK-), Metabolic Activation: RAT, LIVER, S-9, AROCLOR 1254, Method: SUSPENSION/PLATE) was “inactive; negative. reevaluation of results: negative”.
`O=c1c2c(O)cccc2oc2c3c(cc(O)c12)O[C@H]1OCC[C@@H]31` was tested, and the mutagenic call (Test System: AMES SALMONELLA TYPHIMURIUM, Strain/Indicator: TA98, Metabolic Activation: RAT, LIVER, S-9, PHENOBARBITAL, Method: STANDARD PLATE) was “inactive; negative” and the mutagenic call (Test System: AMES SALMONELLA TYPHIMURIUM, Strain/Indicator: TA100, Metabolic Activation: RAT, LIVER, S-9, PHENOBARBITAL, Method: STANDARD PLATE) was “inactive; negative”.
In the case of `OCC(CBr)(CBr)CBr`, the mutagenic call (Test System: AMES SALMONELLA TYPHIMURIUM, Strain/Indicator: TA98, Metabolic Activation: HAMSTER, LIVER, S-9, AROCLOR 1254 (10%), Method: PREINCUBATION) is reported as “inactive; negative”, the mutagenic call (Test System: AMES SALMONELLA TYPHIMURIUM, Strain/Indicator: TA98, Metabolic Activation: NONE, Method: PREINCUBATION) is reported as “inactive; negative” and the mutagenic call (Test System: AMES SALMONELLA TYPHIMURIUM, Strain/Indicator: TA98, Metabolic Activation: RAT, LIVER, S-9, AROCLOR 1254 (10%), Method: PREINCUBATION) is reported as “inactive; negative”. For the same molecule, the mutagenic call (Test System: AMES SALMONELLA TYPHIMURIUM, Strain/Indicator: TA100, Metabolic Activation: HAMSTER, LIVER, S-9, AROCLOR 1254 (10%), Method: PREINCUBATION) was “inactive; negative”, the mutagenic call (Test System: AMES SALMONELLA TYPHIMURIUM, Strain/Indicator: TA100, Metabolic Activation: NONE, Method: PREINCUBATION) was “inactive; negative” and the mutagenic call (Test System: AMES SALMONELLA TYPHIMURIUM, Strain/Indicator: TA100, Metabolic Activation: RAT, LIVER, S-9, AROCLOR 1254 (10%), Method: PREINCUBATION) was “inactive; negative”. For the same molecule, the mutagenic call (Test System: AMES SALMONELLA TYPHIMURIUM, Strain/Indicator: TA1535, Metabolic Activation: HAMSTER, LIVER, S-9, AROCLOR 1254 (10%), Method: PREINCUBATION) was “active; positive”, the mutagenic call (Test System: AMES SALMONELLA TYPHIMURIUM, Strain/Indicator: TA1535, Metabolic Activation: NONE, Method: PREINCUBATION) was “inactive; negative” and the mutagenic call (Test System: AMES SALMONELLA TYPHIMURIUM, Strain/Indicator: TA1535, Metabolic Activation: RAT, LIVER, S-9, AROCLOR 1254 (10%), Method: PREINCUBATION) was “inactive; negative”. The mutagenic call (Test System: AMES SALMONELLA TYPHIMURIUM, Strain/Indicator: TA1537, Metabolic Activation: HAMSTER, LIVER, S-9, AROCLOR 1254 (10%), Method: PREINCUBATION) was “inactive; negative”, the mutagenic call (Test System: AMES SALMONELLA TYPHIMURIUM, Strain/Indicator: TA1537, Metabolic Activation: NONE, Method: PREINCUBATION) was “inactive; negative” and the mutagenic call (Test System: AMES SALMONELLA TYPHIMURIUM, Strain/Indicator: TA1537, Metabolic Activation: RAT, LIVER, S-9, AROCLOR 1254 (10%), Method: PREINCUBATION) was “inactive; negative”.
`CCCCC(C)=O` was tested, and the mutagenic call (Test System: CHINESE HAMSTER V-79, Strain/Indicator: V-79 (HPRT)/6-THIOGUANINE, Metabolic Activation: NONE, Method: STANDARD PLATE) was “inactive; negative” and the mutagenic call (Test System: CHINESE HAMSTER V-79, Strain/Indicator: V-79 (HPRT)/6-THIOGUANINE, Metabolic Activation: RAT LIVER S-9, Method: STANDARD PLATE) was “inactive; negative”.
For `CC(=O)OCc1c2ccccc2cc2c1ccc1ccccc12`, the mutagenic call [1] was “active; positive” and the mutagenic call [3] was “active; positive”.
With `CC(C)[C@@](O)(C(=O)OC[C@@H]1CCN2CCC[C@H]12)[C@@H](C)O` the mutagenic call (Test System: AMES SALMONELLA TYPHIMURIUM, Strain/Indicator: TA100, Metabolic Activation: HAMSTER, LIVER, S-9, PCB, Method: PREINCUBATION) was “inactive; negative” and the mutagenic call (Test System: AMES SALMONELLA TYPHIMURIUM, Strain/Indicator: TA100, Metabolic Activation: RAT, LIVER, S-9, PCB, Method: PREINCUBATION) was “inactive; negative”.
For `C=CC(=O)OCCCCOC(=O)C=C`, the mutagenic call [1] was “inactive; negative”, the mutagenic call [2] was “inactive; negative” and the mutagenic call (Test System: AMES SALMONELLA TYPHIMURIUM, Strain/Indicator: TA98, Metabolic Activation: RAT, LIVER, S-9, SODIUM PHENOBARBITAL, Method: STANDARD PLATE) was “inactive; negative”. For the same molecule, the mutagenic call [3] was “inactive; negative”, the mutagenic call [4] was “inactive; negative” and the mutagenic call (Test System: AMES SALMONELLA TYPHIMURIUM, Strain/Indicator: TA100, Metabolic Activation: RAT, LIVER, S-9, SODIUM PHENOBARBITAL, Method: STANDARD PLATE) was “inactive; negative”. For the same molecule, the mutagenic call [5] was “inactive; negative”, the mutagenic call [6] was “inactive; negative” and the mutagenic call (Test System: AMES SALMONELLA TYPHIMURIUM, Strain/Indicator: TA1535, Metabolic Activation: RAT, LIVER, S-9, SODIUM PHENOBARBITAL, Method: STANDARD PLATE) was “inactive; negative”. For the same molecule, the mutagenic call [7] was “inactive; negative”, the mutagenic call [8] was “inactive; negative” and the mutagenic call (Test System: AMES SALMONELLA TYPHIMURIUM, Strain/Indicator: TA1537, Metabolic Activation: RAT, LIVER, S-9, SODIUM PHENOBARBITAL, Method: STANDARD PLATE) was “inactive; negative”. The mutagenic call [9] was “inactive; negative”, the mutagenic call [10] was “inactive; negative” and the mutagenic call (Test System: AMES SALMONELLA TYPHIMURIUM, Strain/Indicator: TA1538, Metabolic Activation: RAT, LIVER, S-9, SODIUM PHENOBARBITAL, Method: STANDARD PLATE) was “inactive; negative”.
In the case of `[O][Cl+][O-]`, the mutagenic call (End Point: IN VIVO MICRONUCLEUS, Test System: BONE MARROW POLYCHROMATIC ERYTHROCYTES, Species: MOUSE, Strain/Sex: DDY/MALE, Route: IP) is reported as “active; positive”.
`O=C1OCC(Br)=C1Br` was tested, and the mutagenic call [3] was “active; positive”.
`O=CN(O)c1ccc(Br)cc1` was tested, and the mutagenic call [1] was “inactive; negative”, the mutagenic call [2] was “active; positive” and the mutagenic call [3] was “inactive; negative”. The mutagenic call [4] was “active; positive”.
`O=[N+]([O-])c1ccccc1SSC(Cl)=C(Cl)Cl` was tested, and the mutagenic call (Test System: AMES SALMONELLA TYPHIMURIUM, Strain/Indicator: TA100(DNP6), Metabolic Activation: NONE, Method: PREINCUBATION) was “active; positive” and the mutagenic call (Test System: AMES SALMONELLA TYPHIMURIUM, Strain/Indicator: TA100(NR), Metabolic Activation: NONE, Method: PREINCUBATION) was “active; positive”.

Source: PubChem BioAssay AID1259407 (Chemical Carcinogenesis Research Information System (CCRIS), 2018)
